# Source: ChEMBL document CHEMBL1129805, “Novel conformationally constrained analogues of diacylglycerol. Protein kinase C binding affinity of simplified compounds based on a 6-membered lactam moiety” (Bioorg Med Chem Lett, 1997)
# How the values were obtained:
# HL-60 [1] = experiment: Effective dose required to […] the differentiation to monocytes of HL-60 cells; assay type: functional; details: Homo sapiens, read-out: ED50 (the source's name)
# [2] = molecular target: Protein kinase C delta type (Homo sapiens, UniProt Q05655); experiment: Displacement of [3H]PDBu from Protein kinase C delta
# HL-60 [3] = experiment: Effective dose required to […] the differentiation to monocytes of HL-60 cells; Weaker activity; assay type: functional; details: Homo sapiens, read-out: ED50 (the source's name)
# HL-60 [4] = experiment: Effective dose required to […] the differentiation to monocytes of HL-60 cells; Inactive; assay type: functional; details: Homo sapiens, read-out: ED50 (the source's name)
# Sequence of Protein kinase C delta type (Q05655 whole entry): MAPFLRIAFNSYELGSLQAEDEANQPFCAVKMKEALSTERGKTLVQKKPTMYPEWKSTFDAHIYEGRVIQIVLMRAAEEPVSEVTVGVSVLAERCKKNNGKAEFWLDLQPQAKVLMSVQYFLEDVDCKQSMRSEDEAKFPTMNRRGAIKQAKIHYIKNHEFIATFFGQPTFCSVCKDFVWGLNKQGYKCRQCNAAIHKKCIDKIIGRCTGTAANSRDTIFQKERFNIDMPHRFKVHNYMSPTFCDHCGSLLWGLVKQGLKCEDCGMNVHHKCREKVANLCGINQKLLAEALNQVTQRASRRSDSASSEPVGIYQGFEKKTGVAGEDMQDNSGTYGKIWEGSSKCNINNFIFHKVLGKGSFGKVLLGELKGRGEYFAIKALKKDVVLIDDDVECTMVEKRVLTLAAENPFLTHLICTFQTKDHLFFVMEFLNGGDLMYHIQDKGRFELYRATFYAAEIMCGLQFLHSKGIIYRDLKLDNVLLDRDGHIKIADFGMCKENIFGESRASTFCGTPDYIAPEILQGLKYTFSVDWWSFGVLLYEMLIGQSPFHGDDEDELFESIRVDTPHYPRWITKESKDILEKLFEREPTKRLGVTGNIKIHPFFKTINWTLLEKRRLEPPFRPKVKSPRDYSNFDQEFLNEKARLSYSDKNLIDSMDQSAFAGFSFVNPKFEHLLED
EC50 (HL-60 [1]) [nM],Ki [2] [nM],EC50 (HL-60 [3]) [nM],EC50 (HL-60 [4]) [nM],Compound
200,290,–,–,CCCCCCCCCCCCCCN1C[C@@H](CO)NC(=O)[C@@H]1C(C)C
–,2700,1000,–,CCCCCCCCCCCCCCN1C[C@H](CO)NC(=O)[C@@H]1C(C)C
–,6500,–,–,CCCCCCCCCCCCCCN1C[C@@H](CO)NC(=O)[C@H]1C(C)C
–,12000,–,> 5000,CCCCCCCCCCCCCCN1C[C@H](CO)NC(=O)[C@H]1C(C)C
